Laboratory results as given in patent US20260306500A1, “METHOD OF INHIBITING ADENOSINE TRIPHOSPHATE SECRETION, METHOD OF INHIBITING HEPATIC STELLATE CELL ACTIVATION, METHOD OF DEACTIVATING HEPATIC STELLATE CELL, METHOD OF TREATING HEPATIC FIBROSIS, METHOD OF TREATING NON-ALCOHOLIC STEATOHEPATITIS, AND METHOD OF TREATING PSORIASIS” (Kurume University, priority 2023, published 2026).

How the values were obtained:
[1] = test system: MCD diet-induced NASH model; conditions: administration of clodronate, Non Patent Literature 4; cited from earlier work
[2] = clodronate; cited from earlier work
VNUT [3] = conditions: known; cited from earlier work
V-ATPase [4] = target: T1, V-ATPase (Bos taurus, UniProt P31404+P31408); assay: Transmembrane potential generated (oxonol-V fluorescence quenching) in chromaffin granules; type: biochemical, cattle; conditions: role: inhibitor; 5 mM PEP, in presence of ATP, N=2
T1 construct: Chromaffin granule membranes were prepared from adrenal glands collected from slaughtered cattle; from tissue; host or cells: cattle adrenal glands, chromaffin granule membranes (sucrose density gradient)
Protocol: Chromaffin granule membranes were prepared from adrenal glands collected from slaughtered cattle according to Reference A (Nathan Nelson et al., 1988, Chromaffin Granule Proton Pump, Methods in Enzymology, 157, 619-633). Chromaffin granule membranes prepared by sucrose density gradient centrifugation were suspended in 2 ml of SME buffer (20 mM MOPS-tris (pH 7.0), 0.3 M sucrose, 5 mM EDTA, 10 μg/ml leupeptin, and 10 μg/ml pepstatin)+25% glycerol, and the resulting suspension was aliquoted and stored at −80° C. Under these conditions, the ATP transport activity, the V-ATPase activity, and the catecholamine transport activity remain fully active for at least one year.
ATP-dependent proton transport by V-ATPase was measured according to Reference B. Proton transport activity was measured using a spectrofluorometer at excitation wavelength of 492 nm and a fluorescence wavelength 540 nm, wherein fluorescence quenching of acridine orange was used as an index (N=2). The transmembrane potential generated was measured using a spectrofluorometer at an excitation wavelength of 580 nm and a fluorescence wavelength of 630 nm, wherein fluorescence quenching of oxonol-V was used as an index (N=2). […]

[5] = PEP; cited from earlier work
[6] = test system: ATP-loaded vesicles of keratinocytes; assay: Accumulation of MANT-ATP in granules of keratinocytes (confocal microscopy); type: cell-based, human; conditions: 10 μM imeglimin, 19 hours, 0.3 mM MANT-ATP (FIG. 13)
Protocol: Keratinocytes were cultured in the same manner as in Example 8. Keratinocytes were cultured at 4×10^4 cells/ml in a glass-bottom dish (35 mm, manufactured by Matsunami Glass Ind., Ltd.) at 37° C. in 5% CO2 for 2 days. The culture medium was then replaced with a medium supplemented with MANT-ATP (manufactured by Invitrogen) at a final concentration of 0.3 mM, and further incubation was performed for 4.5 hours. Subsequently, imeglimin was added thereto to a final concentration of 10 μM, and further incubation was performed at 37° C. in 5% CO2 for 19 hours. Thereafter, the cells were washed twice with HBSS (manufactured by Gibco) and observed using an inverted confocal laser microscope (FV-1000 OSR, manufactured by Olympus Corporation).

VNUT [7] = assay: Inhibitory effect on VNUT (data not shown)
V-ATPase [8] = assay: Inhibitory effect on V-ATPase (data not shown)
mouse auricle = assay: Imiquimod-induced psoriasis model, oral imeglimin (Example 18); type: in vivo
Protocol: Experimental psoriatic symptoms were induced in a mouse auricle by imiquimod. Six-week-old male C57BL/6 mice (N=5) were acclimated for one week. On Days 1 to 7, 62.5 mg of 5% imiquimod cream (Beselna Cream 5%) (3.125 mg in terms of the active ingredient, manufactured by Mochida Pharmaceutical Co. Ltd.) was applied to the right auricle of the mice for 7 consecutive days (IMQ group). Once daily after the imiquimod application, the imeglimin administration group (IMQ+IMG group) received oral administration, at 40 mg/kg, of 500-mg Twymeeg (trademark) tablets (manufactured by Sumitomo Pharma Co. Ltd.) dissolved in physiological saline. The control group received an equal volume of physiological saline. On Day 8, the mice were euthanized by cervical dislocation, and auricle thickness was measured using a dial thickness gauge (manufactured by Adachi Sogyo Co., Ltd.).
Each excised mouse auricle was fixed in 4% paraformaldehyde at 4° C. overnight. After ethanol substitution, the auricle was embedded in paraffin, sectioned using a rotary microtome Leica RM2165 (thickness, […]), and subjected to HE staining or immunohistochemical staining. For the immunohistochemical staining, the sections were deparaffinized, washed in xylene, and rehydrated through graded alcohols. The sections were incubated in DAKO at 95° C. for 30 minutes. The sections were blocked at room temperature for 60 minutes and then incubated at room temperature for 2 hours to allow reaction with a TGM1 anti-rabbit polyclonal antibody (catalog number 12912-3-AP, manufactured by Proteintech). The sample was washed and then allowed to react with a secondary antibody (Alexa 544-conjugated secondary antibody (goat anti-rabbit IgG) (manufactured by Molecular Probes)) at room temperature for 60 minutes. After allowing reaction with DAPI at room temperature for 10 minutes, the sections were mounted with Fluoromount and imaged using a fluorescence microscope (BZ-X710, manufactured by Keyence).

[9] = 40 mg/kg oral once daily, Day 8, N=5 (FIG. 33)

T1 sequence (P31404 whole entry, looked up): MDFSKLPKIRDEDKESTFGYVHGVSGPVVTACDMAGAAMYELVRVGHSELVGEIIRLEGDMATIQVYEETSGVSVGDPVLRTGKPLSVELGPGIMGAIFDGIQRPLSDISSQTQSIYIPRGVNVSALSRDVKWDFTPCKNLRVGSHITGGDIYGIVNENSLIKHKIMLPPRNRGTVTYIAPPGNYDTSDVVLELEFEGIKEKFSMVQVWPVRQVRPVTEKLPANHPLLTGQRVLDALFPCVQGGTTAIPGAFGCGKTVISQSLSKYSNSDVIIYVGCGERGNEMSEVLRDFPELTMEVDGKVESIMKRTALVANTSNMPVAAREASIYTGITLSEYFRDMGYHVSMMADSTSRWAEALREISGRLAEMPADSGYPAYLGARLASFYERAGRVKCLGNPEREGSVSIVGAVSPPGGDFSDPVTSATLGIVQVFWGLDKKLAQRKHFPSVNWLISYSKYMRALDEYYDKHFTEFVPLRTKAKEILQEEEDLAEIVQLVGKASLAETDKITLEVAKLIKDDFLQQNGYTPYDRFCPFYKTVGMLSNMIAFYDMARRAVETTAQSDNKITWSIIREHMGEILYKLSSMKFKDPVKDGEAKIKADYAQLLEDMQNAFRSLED
T1 sequence (P31408 whole entry, looked up): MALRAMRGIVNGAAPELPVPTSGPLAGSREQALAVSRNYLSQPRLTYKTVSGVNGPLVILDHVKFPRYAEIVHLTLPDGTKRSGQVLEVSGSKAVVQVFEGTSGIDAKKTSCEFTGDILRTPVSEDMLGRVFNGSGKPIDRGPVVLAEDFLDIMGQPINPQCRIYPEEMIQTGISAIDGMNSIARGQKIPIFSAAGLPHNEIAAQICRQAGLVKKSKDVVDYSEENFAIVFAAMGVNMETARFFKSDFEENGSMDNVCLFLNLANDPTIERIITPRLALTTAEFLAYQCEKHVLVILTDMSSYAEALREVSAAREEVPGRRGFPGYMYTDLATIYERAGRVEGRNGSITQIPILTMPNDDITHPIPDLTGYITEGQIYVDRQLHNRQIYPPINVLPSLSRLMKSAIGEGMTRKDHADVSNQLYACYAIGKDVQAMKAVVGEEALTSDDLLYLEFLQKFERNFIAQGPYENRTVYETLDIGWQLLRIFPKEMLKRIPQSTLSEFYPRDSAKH

SMILES: O=P(O)(O)C(Cl)(Cl)P(=O)(O)O [clodronate]
- NASH activity score, inflammatory cell infiltration, and hepatic fibrosis [1]: improves
- absorption [2]: extremely low absorption
- accumulation in bone [2]: accumulate in bone
- serious side effect [2]: jaw osteonecrosis
- VNUT inhibition (VNUT [3]): known to be a VNUT inhibitor

SMILES: C=C(OP(=O)(O)O)C(=O)O [PEP, phosphoenolpyruvic acid]
- change in oxonol-V quenching level (V-ATPase [4]): did not change the level of quenching
- permeation of the cell membrane [5]: freely permeate the cell membrane

SMILES: C[C@@H]1N=C(N)NC(N(C)C)=N1 [imeglimin]
- accumulation of MANT-ATP in granules [6]: absent
- inhibitory effect on VNUT (VNUT [7]): neither imeglimin nor metformin exhibited a strong inhibitory effect
- inhibitory effect on V-ATPase (V-ATPase [8]): neither imeglimin nor metformin exhibited a strong inhibitory effect
- inhibitory effect on psoriatic symptoms by TMG1 immunohistochemical images (mouse auricle; 40 mg/kg oral once daily (FIG. 36)): supported by the immunohistochemical images of TMG1
- epidermal desquamation (mouse auricle; [9]): eliminated epidermal desquamation
- psoriatic symptoms (mouse auricle; [9]): reduced the psoriatic symptoms
- imiquimod-induced auricle thickening (mouse auricle; 40 mg/kg oral once daily, N=5 (FIG. 34)): suppressed
